Results taken from a melting point compilation (Tetko et al.; mined from patent text by program, amines drawn as free bases though some values may be those of a salt).

Row | melting point [°C] | SMILES
1 | 134 to 136 | CCOC(=O)c1c(-c2ccc(C)cc2)c2ccncc2c(=O)n1C
2 | > 250 | CCc1nc2c(N)nc3ccccc3c2n1CCCS(C)(=O)=O
3 | 133 to 138 | O=C(Nc1ccc(-n2nc(C3CC3)cc2C2CC2)cc1)c1ccccc1
4 | > 300 | N#Cc1cc2nc(O)c(O)nc2cc1C(F)(F)F
5 | 165 to 166 | Cc1nc(N2CCN(Cc3ccc(OC(F)(F)F)cc3)C2=O)sc1C(=O)NCc1cccnc1
6 | 284 to 296 | CC1(C)Cc2c(ccc3c2C(c2cccc(-c4ccc(C(N)=O)cc4)c2)=NCC3(C)C)O1
7 | 87 to 89 | CSc1ncccc1C(=O)CC(=O)C1CC1
8 | 136 to 137 | Clc1cccc(Cn2ccc(CN3CCC(c4ccccc4)(c4ccccc4)CC3)n2)c1
9 | 173 to 175 | O=C(Oc1cc(F)ccc1Br)c1cc2ccccc2oc1=O
10 | 148 to 151 | Cc1cc(C(=O)Nc2ccn3cc(-c4ccccc4)nc3n2)cc(Cl)n1
11 | 84 to 85 | CCOC(=O)CCCOc1ccc(N2CCN(c3ccncc3)CC2)cc1
12 | 174 to 177 | O=C(CCc1ccncc1)c1c(O)c2cccnc2n(-c2cccc([N+](=O)[O-])c2)c1=O
13 | 188 to 191 | c1cnc2ccc(Cn3nnc4ccc(-c5cnn(C6CCNCC6)c5)nc43)cc2c1
14 | 79 to 82 | CC(C)(C)c1cc(SCc2ccccc2C#N)cc(C(C)(C)C)c1O
15 | 116 to 117 | CN(CCOc1ccc(CC(OCC(F)(F)F)C(=O)O)cc1)c1nc2ccccc2o1 (configuration not stated)
16 | 168 to 170 | C=Cc1ccc2sc(S(N)(=O)=O)cc2c1
17 | 99 to 102 | CCOc1ccc(C2=NN(C3CCN(S(C)(=O)=O)CC3)C(=O)[C@@H]3CC=CC[C@H]23)cc1OCC
18 | 74 | COc1cc(OS(=O)(=O)C(F)(F)F)c(Cl)c(C)c1Cl
19 | 59 | O=[N+]([O-])c1ccc(F)c(Br)c1
20 | 103 to 105 | CCN(Cc1cccs1)C(=O)C12CC3CC(CC(C3)C1)C2
21 | 142 to 145 | COC(=O)CNC(=S)n1nc(-c2ccc(Cl)cc2)nc1N
22 | 237 to 242 | C=Cc1cnc(Nc2ccc(C#N)cc2)nc1Nc1c(C)cc(C)cc1C
23 | 273 to 274 | CS(=O)(=O)c1ccc(-c2sc(Nc3ccc(C#N)cc3)nc2-c2ccc(F)cc2)cc1
24 | > 250 | CCOC(=O)c1c(Cl)nc2cc(Cl)c(F)cc2c1CCl

Row | melting point [°C] | SMILES
25 | 83 to 84 | C[C@H]1c2ccccc2N(C(=O)CCl)[C@H]1C (relative stereo)
26 | 138 to 140 | O=C(CBr)c1cc(O)c(O)c([N+](=O)[O-])c1
27 | 135 to 137 | CNc1ccccc1CS(=O)c1nccn1-c1ccccn1 (configuration not stated)
28 | 191 to 192 | CC(=O)NC[C@H]1CN(c2ccc(C3CCOCC3)c(F)c2)C(=O)O1
29 | 226 to 228 | NC(=O)c1ccc(-c2ccccc2C(=O)N2Cc3cccn3Cc3ccccc32)cc1C(F)(F)F
30 | 92 to 94 | O=C(OC1COC1)c1sccc1OS(=O)(=O)Cl
31 | 145 | O=C(OCCN1CCC(Nc2nc3ccccc3n2Cc2ccc(F)cc2)CC1)N1CCOCC1
32 | 113 to 114 | CCOCCOCCOCC1(c2ccc(Oc3cncc4sc(-c5nnc(N)o5)cc34)cc2)CC1
33 | 163 | CSc1ccc(N2CCN(CCCOc3ccc(C4=NCCO4)cc3)CC2)nn1
34 | 84 to 90 | C=CCn1cc(Cc2ccc(C(=O)O)cc2OC)c2cc(C=C(C)C(=O)NCCC)ccc21
35 | 115 | NC(=O)c1ccc(F)c2c1CC(N(CCCCc1c[nH]c3ccc(F)cc13)CC1CC1)CO2 (configuration not stated)
36 | 221 to 223 | COC(=O)C1=C(C)NC(C)=C(P2(=O)OCCCO2)C1c1cccc([N+](=O)[O-])c1 (configuration not stated)
37 | 109 to 110 | Cc1cc(COC2CCCCO2)nc(N)n1 (configuration not stated)
38 | 142 | C[Si](C)(C)C#Cc1ccc2c(c1)NC(=O)CO2
39 | 104 to 106 | COc1nc(C)c(C)nc1N(C)C(=O)N1CCN(c2cc(F)cc(F)c2)CC1
40 | 200 to 202 | CCCC(=O)c1c[nH]c2c(OC)cccc2c1=O
41 | 230 to 231 | CCOC(=O)CN1C(=O)C(NC(=O)Nc2cccc(C)c2)N=C(C)c2cccc(C)c21 (configuration not stated)
42 | 120 | O=C(O)c1nccc(OCc2ccccc2)c1OCc1ccccc1
43 | 208 to 210 | O=c1[nH]nc(-c2ccc(Cl)cc2)n1Cc1ccccc1
44 | 100 | CCC1(C)CC(S(=O)(=O)C(Cl)(Cl)c2cccc(F)c2)=NO1 (configuration not stated)
45 | 193 to 195 | CC1(C)[C@@H](CNC(=O)C2CCC(F)(F)CC2)CC[C@@]1(C)NCC(=O)N1C[C@@H](F)C[C@H]1C#N
46 | 88 to 90 | Cc1cccc2c(-c3ccc(Cl)cc3)noc12
47 | 150 to 152 | N#Cc1cc(-c2ccoc2)c2ccc(COc3cc(F)cc(-c4ccccc4)c3)cc2n1
48 | 205 to 207 | Cc1sc2c(Br)c3ccccc3c(-c3cc(Br)c(O)c(NC(=O)OC(C)(C)C)c3)c2c1C

Row | melting point [°C] | SMILES
49 | 195 to 196 | N#Cc1cc(NC(=O)c2ccn(-c3ccc(F)cc3)c2)ccc1N1CCCCC1
50 | 160 | COc1ccc(C(=O)Nc2ccc3ccc(Oc4ccccc4)nc3n2)cc1
51 | 68 | COc1c(N)cc(Cl)c(OC)c1[N+](=O)[O-]
52 | 144 to 147 | COc1ccc(N2CCN(C3CCN(Cc4ccccc4)CC3)C2=O)cc1
53 | 246 to 249 | NC(=O)c1cc(Oc2ccc(Cl)c(Cl)c2)cnc1O
54 | 209 to 212 | O=C1c2ccc(Cl)cc2C(=O)N1c1ccc([N+](=O)[O-])cc1Cl
55 | 152 to 156 | O=C(NCCCO)c1cc2ccccc2[nH]1
56 | 52 | CCCc1ccc(CCNC(C)=O)cc1
57 | 104 to 106 | CCOC(=O)CON(C)C(=S)Nc1ccc(Cl)cc1C
58 | 143 to 144 | Cc1cccc(-c2nc3cccnn3c2-c2ccnc(NCCN3CCCCC3)c2)c1
59 | 90 to 91 | CC(=O)OCC1OC(n2c(Cl)nc3cc(F)c(F)cc32)C(OC(C)=O)C1OC(C)=O (configuration not stated)
60 | 27 to 31 | CCN(CC)CCCOc1ccc(-c2nnc(CSCCOc3ccccc3)o2)cc1
61 | 187 to 189 | Nc1cccc(-c2ccc3nnn(Cc4ccc5ncccc5c4)c3n2)c1
62 | 232 to 233 | CN(C)C(=O)c1nc(-c2ccccc2)nc2[nH]c3cc(Cl)ccc3c12
63 | 143 to 144 | CC(C(=O)O)c1ccc(CCNC(=O)c2cccc3cccnc23)cc1 (configuration not stated)
64 | 158 to 160 | O=CNC1=NN(c2ccccc2)C(c2ccccc2)C1 (configuration not stated)
65 | 231 | Cc1cc(NCCO)n2ncc([N+](=O)[O-])c2n1
66 | 186 to 187 | CC(=O)NNC(=O)c1ccc(Br)c(C)c1
67 | 87 to 88 | CCOC(=O)C1=C(C)NC(C=O)=C(C(=O)OCC)C1c1ccccc1Cl (configuration not stated)
68 | 164 to 166 | CC(=O)Nc1ccc(Nc2ccccc2[N+](=O)[O-])cc1
69 | 106 to 108 | C#CC1(OC(=O)C(C)C)C(COC(=O)c2ccc(Cl)cc2)OC(n2ccc(N)nc2=O)C1OC(=O)C(C)C (configuration not stated)
70 | 213 to 214 | CN(c1cccc2c(F)c(C3=NCC(CC(=O)O)S3)[nH]c12)S(=O)(=O)c1cccs1 (configuration not stated)
71 | 180 to 182 | O=C(O)C1CCc2c(c3ccccc3n2C(=O)c2cccs2)C1 (configuration not stated)
72 | 254 to 256 | COc1cc(C(=O)O)c2oc(-c3ccc(OC)c(F)c3)cc2c1

Row | melting point [°C] | SMILES
73 | 62 to 64 | N=c1ccccn1COc1ccccc1Br
74 | 88 to 89 | C=CCNc1nc(NC(=O)C(C)(C)C)c2scc(C)c2n1
75 | 42 to 45 | O=C(O)C1(CC2CCCC2)CC1
76 | 146 | Fc1ccc(C(c2ccccc2)(c2ccccc2)n2ccnc2)cc1
77 | 126 to 128 | Cn1c(C(F)(F)F)cc(=O)n(-c2cc(OCc3ccccc3F)c(Cl)cc2F)c1=O
78 | 99 to 100 | CCOc1nn(-c2ccc(C(F)(F)F)cn2)cc1CCCOc1cc(CCC(=O)O)cc(OC)c1
79 | 130 to 131 | CC(C)c1nn(-c2ccc(C(F)(F)F)cn2)cc1CCCOc1cc(CCC(=O)O)n(C(C)C)n1
80 | 129 to 132 | O=CN(N=Cc1cccnc1)c1ccccc1
81 | 103 to 104 | CSc1ccc(-c2oncc2C(=O)C2CC2)nc1
82 | 163 to 164 | CCO/C=C/C(=O)Nc1ccc(Br)cc1C
83 | 106 to 108 | CS(=O)c1nc(-c2cc(C(C)(C)C)c(O)c(C(C)(C)C)c2)c[nH]1 (configuration not stated)
84 | 62 to 64 | CCOC(=O)c1cccn2cc(C)nc12
85 | 55 to 57 | COC(=O)C(C)Oc1ccc(Oc2ccc(Cl)cc2F)cc1 (configuration not stated)
86 | 120 to 122 | COc1ccc(-c2c(NC(=O)Nc3ccc(F)cc3F)cnc3ccc(Cl)cc23)c(OC)c1OC
87 | 246 to 248 | Oc1cccc2c1CCC(c1ccccn1)O2 (configuration not stated)
88 | 275 to 277 | O=C(O)c1cccc(C(=O)Nc2cccc3cc(Br)cnc23)c1
89 | 147 to 150 | c1coc(C2=NOCCS2)c1
90 | 112 to 115 | C=CC(=O)Oc1ccc(CNS(C)(=O)=O)cc1
91 | 91 to 94 | C=C1CCC2C3CC(=O)c4cc(OC(C)=O)ccc4C3CCC12C (configuration not stated)
92 | 116 to 119 | Nc1noc2cc3c(cc12)C1(CO3)C(=O)N(CC2CCCO2)c2ccccc21 (configuration not stated)
93 | 82 to 84.3 | CSc1ccc(F)cc1C(C)=O
94 | 248 to 250 | CC(C)n1nc(-c2sc(C(N)=O)nc2-c2cccc(F)c2)ccc1=O
95 | 195 to 197 | Cc1nc2c(N)nc3ccccc3c2o1
96 | 39 to 40 | Cc1sc2ccccc2c1Br

Row | SMILES | melting point [°C]
97 | N#Cc1nn(-c2c(Cl)cc(C(F)(F)F)cc2Cl)c(N)c1-c1ccccc1 | 198 to 199
98 | Cc1cc(C2=CCN(CCCC(=O)c3ccc(F)cc3)CC2)on1 | 96 to 98
99 | NC(=O)c1ccc(Cl)c([N+](=O)[O-])c1N1CC1 | 216
100 | CCc1c(C)cc(C(=O)NC(C(=O)OC)c2cccs2)c(=O)n1Cc1ccc(F)cc1 (configuration not stated) | 182 to 184
101 | Cc1ccc2[nH]c(-c3ccccc3)c(CCN3CCCCC3)c2c1 | 163 to 164
102 | CCCC12CCC3C4CCC(=O)C=C4CCC3C1CCC2OCc1ccccc1 (configuration not stated) | 198 to 200
